US8158792B2, “Spiropiperidines for use as tryptase inhibitors” (Janssen Pharmaceutica N.V., priority 2007, dated 2012)

Biological target: human lung tryptase
Experiment: β-Tryptase In-Vitro Enzyme Assay
Assay type: biochemical
Details: human lung tryptase 1 nM, substrate H-D-HHT-Ala-Arg-pNa 500 μM, pH 7.4, room temperature
Experimental: The β-tryptase assay was conducted with human lung tryptase (Cortex Biochem #CP3033) in an aqueous buffer (10 mM Tris, 10 mM Hepes, 150 mM NaCl, 0.1% PEG 8000, pH 7.4) using the chromogenic substrate H-D-HHT-Ala-Arg-pNa. […] Percent inhibition was calculated by comparing the initial reaction velocity of samples without inhibitor to those with inhibitor. The initial reaction velocities were analyzed using Microsoft Excel.

SMILES | IC50 [nM]
NCc1ccc2c(c1)C1(CCN(C(=O)c3cc(C(N)=O)cc(-c4nc(-c5cccs5)no4)c3)CC1)CO2 [Cpd 284, 1-[3-(3-thien-2-yl-[1,2,4]oxadiazol-5-yl)-5-aminocarbonyl-phenyl]carbonyl-5′-aminomethyl-spiro[piperidine-4,3′-(2H)-benzo[b]furan]] | 4.6
CSc1sc(C(=O)N2CCC3(CC2)COc2ccc(CN)cc23)c2c1C(=O)CCC2 [Cpd 155, 1-(3-methylthio-4-oxo-5,6,7-trihydro-4H-benzo[c]thien-1-yl)carbonyl-5′-aminomethyl-spiro[piperidine-4,3′-(2H)-benzo[b]furan]] | 12
Cc1cc(C(=O)N2CCC3(CC2)COc2ccc(CN)cc23)ccc1I [Cpd 51, 1-(3-methyl-4-iodo-phenyl)carbonyl-5′-aminomethyl-spiro[piperidine-4,3′-(2H)-benzo[b]furan]] | 190
NCc1ccc2c(c1)C1(CCN(C(=O)c3ccc(CSc4ccc(C(F)(F)F)cn4)o3)CC1)CO2 [Cpd 151, 1-[5-(5-trifluoromethyl-pyridin-2-ylthiomethyl)-furan-2-yl]carbonyl-5′-aminomethyl-spiro[piperidine-4,3′-(2H)-benzo[b]furan]] | 180
NCc1ccc2c(c1)C1(CCN(C(=O)Cc3ccc(Cl)c(Cl)c3)CC1)CO2 [Cpd 86, 1-(3,4-dichloro-benzyl)carbonyl-5′-aminomethyl-spiro[piperidine-4,3′-(2H)-benzo[b]furan]] | 620
NCc1ccc2c(c1)C1(CCN(C(=O)c3ccc(-c4ccccn4)s3)CC1)CO2 [Cpd 120, 1-(5-pyridin-2-yl-thien-2-yl)carbonyl-5′-aminomethyl-spiro[piperidine-4,3′-(2H)-benzo[b]furan]] | 130
NCc1ccc2c(c1)C1(CCN(C(=O)c3snnc3-c3ccccc3)CC1)CO2 [Cpd 217, 1-(4-phenyl-[1,2,3]thiadiazol-5-yl)carbonyl-5′-aminomethyl-spiro[piperidine-4,3′-(2H)-benzo[b]furan]] | 650
NCc1ccc2c(c1)C1(CCN(C(=O)c3ccc(Cl)c(F)c3)CC1)CO2 [Cpd 46, 1-(3-fluoro-4-chloro-phenyl)carbonyl-5′-aminomethyl-spiro[piperidine-4,3′-(2H)-benzo[b]furan]] | 110
COc1ccc2[nH]cc(C(=O)N3CCC4(CC3)COc3ccc(CN)cc34)c2c1 [Cpd 238, 1-(5-methoxy-indol-3-yl)carbonyl-5′-aminomethyl-spiro[piperidine-4,3′-(2H)-benzo[b]furan]] | 210
NCc1ccc2c(c1)C1(CCN(C(=O)Cc3ccc(Br)cc3)CC1)CO2 [Cpd 93, 1-(4-bromo-benzyl)carbonyl-5′-aminomethyl-spiro[piperidine-4,3′-(2H)-benzo[b]furan]] | 350
Cc1ccc2c(Cl)c(C(=O)N3CCC4(CC3)COc3ccc(CN)cc34)sc2c1 [Cpd 207, 1-(3-chloro-6-methyl-benzo[b]thien-2-yl)carbonyl-5′-aminomethyl-spiro[piperidine-4,3′-(2H)-benzo[b]furan]] | 1500
NCc1ccc2c(c1)C1(CCN(C(=O)c3ccc(F)cc3)CC1)CO2 [Cpd 43, 1-(4-fluoro-phenyl)carbonyl-5′-aminomethyl-spiro[piperidine-4,3′-(2H)-benzo[b]furan]] | 250
NCc1ccc2c(c1)C1(CCN(C(=O)c3ccc(C#Cc4cccc5ccccc45)o3)CC1)CO2 [Cpd 177, 1-(5-naphthalen-1-ylethynyl-furan-2-yl)carbonyl-5′-aminomethyl-spiro[piperidine-4,3′-(2H)-benzo[b]furan]] | 26
COc1ccc(CC(=O)N2CCC3(CC2)COc2ccc(CN)cc23)cc1 [Cpd 94, 1-(4-methoxy-benzyl)carbonyl-5′-aminomethyl-spiro[piperidine-4,3′-(2H)-benzo[b]furan]] | 240
Cc1ccc(C)c(C#Cc2ccc(C(=O)N3CCC4(CC3)COc3ccc(CN)cc34)o2)c1 [Cpd 172, 1-[5-(2,5-dimethyl-phenylethynyl)-furan-2-yl]carbonyl-5′-aminomethyl-spiro[piperidine-4,3′-(2H)-benzo[b]furan]] | 7.2
CSc1sc(C(=O)N2CCC3(CC2)COc2ccc(CN)cc23)c(Cl)c1S(=O)(=O)C(C)C [Cpd 157, 1-(3-chloro-4-isopropylsulfonyl-5-methylthio-thien-2-yl)carbonyl-5′-aminomethyl-spiro[piperidine-4,3′-(2H)-benzo[b]furan]] | 17
CS(=O)(=O)N1CC2(CCN(C(=O)c3ccc(C#Cc4ccccc4)o3)CC2)c2cc(CN)ccc21 [Cpd 340, 1-(5-phenylethynyl-furan-2-yl)carbonyl-1′-methylsulfonyl-5′-aminomethyl-spiro[piperidine-4,3′-(2H)-indole]] | 1.8
NCc1ccc2c(c1)C1(CCN(C(=O)c3ccc(Cl)c(Cl)c3)CC1)CS2(=O)=O [Cpd 352, 1-(3,4-dichlorophenyl)carbonyl-5′-aminomethyl-spiro[piperidine-4,3′-(1,1-dioxo-(2H)-benzo[b]thiophene)]] | 5300

SMILES | IC50 [nM]
NCc1ccc2c(c1)C1(CCN(C(=O)c3ccc(C#Cc4ccccc4Cl)o3)CC1)CO2 [Cpd 146, 1-[5-(2-chloro-phenylethynyl)-furan-2-yl]carbonyl-5′-aminomethyl-spiro[piperidine-4,3′-(2H)-benzo[b]furan]] | 5.2
NCc1ccc2c(c1)C1(CCN(C(=O)c3ccc4ccccc4c3)CC1)CO2 [Cpd 70, 1-naphthalen-2-ylcarbonyl-5′-aminomethyl-spiro[piperidine-4,3′-(2H)-benzo[b]furan]] | 150
NCc1ccc2c(c1)C1(CCN(C(=O)c3ccc(Oc4cc(Cl)cc(Cl)c4)o3)CC1)CO2 [Cpd 149, 1-[5-(3,5-dichloro-phenoxy)-furan-2-yl]carbonyl-5′-aminomethyl-spiro[piperidine-4,3′-(2H)-benzo[b]furan]] | 110
NCc1ccc2c(c1)C1(CCN(C(=O)c3ccc(Cl)c(Cl)c3)CC1)CO2 [Cpd 1, 1-(3,4-dichlorophenyl)carbonyl-5′-aminomethyl-spiro[piperidine-4,3′-(2H)-benzo[b]furan]] | 31
COc1ccc(C(=O)N2CCC3(CC2)COc2ccc(CN)cc23)cc1I [Cpd 52, 1-(3-iodo-4-methoxy-phenyl)carbonyl-5′-aminomethyl-spiro[piperidine-4,3′-(2H)-benzo[b]furan]] | 22
NCc1ccc2c(c1)C1(CCN(C(=O)c3csc(-c4ccncc4)n3)CC1)CO2 [Cpd 122, 1-(2-pyridin-4-yl-thiazol-4-yl)carbonyl-5′-aminomethyl-spiro[piperidine-4,3′-(2H)-benzo[b]furan]] | 760
NCc1ccc2c(c1)C1(CCN(C(=O)/C=C/c3ccc(-c4ccccc4)cc3)CC1)CO2 [Cpd 117, (E)-1-(4-phenyl-phenylethenyl)carbonyl-5′-aminomethyl-spiro[piperidine-4,3′-(2H)-benzo[b]furan]] | 600
NCc1ccc2c(c1)C1(CCN(C(=O)c3ccc(Br)c([N+](=O)[O-])c3)CC1)CO2 [Cpd 33, 1-(3-nitro-4-bromo-phenyl)carbonyl-5′-aminomethyl-spiro[piperidine-4,3′-(2H)-benzo[b]furan]] | 430
NCc1ccc2c(c1)C1(CCN(Cc3ccc(Cl)c(Cl)c3)CC1)CO2 [Cpd 158, 1-(3,4-dichloro-benzyl)-5′-aminomethyl-spiro[piperidine-4,3′-(2H)-benzo[b]furan]] | 4500
NCc1ccc2c(c1)C1(CCN(C(=O)Cc3ccccc3)CC1)CO2 [Cpd 78, 1-benzylcarbonyl-5′-aminomethyl-spiro[piperidine-4,3′-(2H)-benzo[b]furan]] | 1400
NCc1ccc2c(c1)C1(CCN(C(=O)c3ccc(C#Cc4ccccc4)o3)CC1)CN2S(=O)(=O)c1ccccc1 [Cpd 341, 1-(5-phenylethynyl-furan-2-yl)carbonyl-1′-phenylsulfonyl-5′-aminomethyl-spiro[piperidine-4,3′-(2H)-indole]] | 5.7
NCc1ccc2c(c1)C1(CCN(C(=O)c3cn(Cc4ccccc4)c4ccccc34)CC1)CO2 [Cpd 239, 1-(1-benzyl-indol-3-yl)carbonyl-5′-aminomethyl-spiro[piperidine-4,3′-(2H)-benzo[b]furan]] | 270
NCc1ccc2c(c1)C1(CCN(C(=O)c3ccc(C#Cc4ccccc4)o3)CC1)CN2S(N)(=O)=O [Cpd 342, 1-(5-phenylethynyl-furan-2-yl)carbonyl-1′-aminosulfonyl-5′-aminomethyl-spiro[piperidine-4,3′-(2H)-indole]] | 5.2
NCc1ccc2c(c1)C1(CCN(C(=O)c3cncc(-c4cccs4)c3)CC1)CO2 [Cpd 143, 1-(5-thien-2-yl-pyridin-3-yl)carbonyl-5′-aminomethyl-spiro[piperidine-4,3′-(2H)-benzo[b]furan]] | 56
NCc1ccc2c(c1)C1(CCN(C(=O)c3ccc(C#Cc4ccccc4)o3)CC1)CN2S(=O)(=O)c1csc(C(=O)O)c1 [Cpd 347, 1-(5-phenylethynyl-furan-2-yl)carbonyl-1′-(5-carboxy-thien-3-yl)sulfonyl-5′-aminomethyl-spiro[piperidine-4,3′-(2H)-indole]] | 24
Cc1cccc(/C=C/C(=O)N2CCC3(CC2)COc2ccc(CN)cc23)c1 [Cpd 179, (E)-1-(3-methyl-phenylethenyl)carbonyl-5′-aminomethyl-spiro[piperidine-4,3′-(2H)-benzo[b]furan]] | 260
Cc1cc(C)nc(SCc2ccc(C(=O)N3CCC4(CC3)COc3ccc(CN)cc34)o2)n1 [Cpd 148, 1-[5-(4,6-dimethyl-pyrimidin-2-ylthiomethyl)-furan-2-yl]carbonyl-5′-aminomethyl-spiro[piperidine-4,3′-(2H)-benzo[b]furan]] | 330
NCc1cc2c(cc1F)OCC21CCN(C(=O)c2ccc(Cl)c(Cl)c2)CC1 [Cpd 308, 1-(3,4-dichlorophenyl)carbonyl-5′-aminomethyl-6′-fluoro-spiro[piperidine-4,3′-(2H)-benzo[b]furan]] | 7300
